Measurements published in PubChem BioAssay AID330 (DTP/NCI, 2004).
Values joined by “and” are separate entries in the source; they are usually repeats but may differ in a detail not shown here. Equal values may be shown once. Inconclusive results and toxic doses are left out.

Test system: P388 leukemia ip, CD2F1 mice, survival T/C
Test: NCI In Vivo Anticancer Drug Screen. Data for tumor model P388 Leukemia (intraperitoneal) in CD2F1 (CDF1) mice
Settings: endpoint: median survival time, higher = longer survival
Summary of the method: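 Mice carrying the transplanted tumor received test compound or vehicle. Survival was recorded in each group, and the value is the treated-group measurement divided by that of the vehicle-treated control group.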

[1] = dose: 60.0 mg/kg/injection, schedule: Q01DX005 (ip), vehicle: Klucel (hydroxypropylcellulose) (HPC)
[2] = dose: 120.0 mg/kg/injection, schedule: Q01DX005 (ip), vehicle: Klucel (hydroxypropylcellulose) (HPC)
[3] = dose: 240.0 mg/kg/injection, schedule: Q01DX005 (ip), vehicle: Klucel (hydroxypropylcellulose) (HPC)
[4] = dose: 50.0 mg/kg/injection, schedule: Q01DX005 (ip), vehicle: Klucel (hydroxypropylcellulose) (HPC)
[5] = dose: 100.0 mg/kg/injection, schedule: Q01DX005 (ip), vehicle: Klucel (hydroxypropylcellulose) (HPC)
[6] = dose: 200.0 mg/kg/injection, schedule: Q01DX005 (ip), vehicle: Klucel (hydroxypropylcellulose) (HPC)
[7] = dose: 60.0 mg/kg/injection, schedule: Q01DX005 (ip), vehicle: saline with Tween-80
[8] = dose: 120.0 mg/kg/injection, schedule: Q01DX005 (ip), vehicle: saline with Tween-80
[9] = dose: 240.0 mg/kg/injection, schedule: Q01DX005 (ip), vehicle: saline with Tween-80
[10] = dose: 12.5 mg/kg/injection, schedule: Q01DX009 (ip), vehicle: other
[11] = dose: 25.0 mg/kg/injection, schedule: Q01DX009 (ip), vehicle: other
[12] = dose: 50.0 mg/kg/injection, schedule: Q01DX009 (ip), vehicle: other
[13] = dose: 50.0 mg/kg/injection, schedule: Q01DX005 (ip), vehicle: saline with Tween-80
[14] = dose: 100.0 mg/kg/injection, schedule: Q01DX005 (ip), vehicle: saline with Tween-80
[15] = dose: 200.0 mg/kg/injection, schedule: Q01DX005 (ip), vehicle: saline with Tween-80
[16] = dose: 50.0 mg/kg/injection, schedule: Q01DX009 (ip), vehicle: saline with Tween-80
[17] = dose: 100.0 mg/kg/injection, schedule: Q01DX009 (ip), vehicle: saline with Tween-80
[18] = dose: 200.0 mg/kg/injection, schedule: Q01DX009 (ip), vehicle: saline with Tween-80

With COC1(OC)OC(c2ccccc2)=C(C#N)C(c2ccc(Cl)cc2)C1(OC)OC (stereo not drawn) the T/C [1] was 96 % of control, the T/C [2] was 94 % of control and the T/C [3] was 88 % of control.

With COC(=O)/C=C(\C=C/C(=O)O)C(=O)O the T/C [4] was 104 % of control, the T/C [5] was 100 % of control and the T/C [6] was 95 % of control.

COC(=O)c1nc(SC)[nH]c1CC(N)=O was tested, and the T/C [7] was 101 % of control, the T/C [8] was 100 % of control and the T/C [9] was 96 % of control.

C=C1COC(O)(C2OCOC(C3CC(=O)NC(=O)C3)C2O)C1C (stereo not drawn) was tested, and the T/C (dose: 0.03 mg/kg/injection, schedule: Q01DX009 (ip), vehicle: water) was 107 % of control, the T/C (dose: 2.0 micrograms/kg/injection, schedule: Q01DX009 (ip), vehicle: water) was 119 % of control and the T/C (dose: 4.0 micrograms/kg/injection, schedule: Q01DX009 (ip), vehicle: water) was 119 % of control. For the same compound, the T/C (dose: 7.5 micrograms/kg/injection, schedule: Q01DX009 (ip), vehicle: water) was 117 % of control and the T/C (dose: 32.0 micrograms/kg/injection, schedule: Q01DX009 (ip), vehicle: water) was 181 % of control.

With O=NNc1nccnn1 the T/C (dose: 3.12 mg/kg/injection, schedule: Q01DX009 (ip), vehicle: water) was 105 % of control, the T/C (dose: 6.25 mg/kg/injection, schedule: Q01DX009 (ip), vehicle: water) was 107 % of control and the T/C (dose: 12.5 mg/kg/injection, schedule: Q01DX009 (ip), vehicle: water) was 105 % of control. The T/C (dose: 25.0 mg/kg/injection, schedule: Q01DX009 (ip), vehicle: water) was 108 % of control and 111 % of control, the T/C (dose: 50.0 mg/kg/injection, schedule: Q01DX009 (ip), vehicle: water) was 114 % of control and 118 % of control and the T/C (dose: 100.0 mg/kg/injection, schedule: Q01DX009 (ip), vehicle: water) was 120 % of control. The T/C (dose: 200.0 mg/kg/injection, schedule: Q01DX009 (ip), vehicle: water) was 119 % of control.

For Cc1ccc(S(=O)(=O)N/N=C/c2ccc(C(=O)O)cc2)cc1, the T/C [10] was 105 % of control, the T/C [11] was 111 % of control and the T/C [12] was 109 % of control. For the same compound, the T/C (dose: 100.0 mg/kg/injection, schedule: Q01DX009 (ip), vehicle: other) was 100 % of control, the T/C (dose: 200.0 mg/kg/injection, schedule: Q01DX009 (ip), vehicle: other) was 95 % of control and the T/C (dose: 400.0 mg/kg/injection, schedule: Q01DX009 (ip), vehicle: other) was 105 % of control.

In the case of CC1CP(c2ccccc2)(c2ccccc2)(c2ccccc2)OC1(C(=O)c1ccccc1)c1ccccc1 (stereo not drawn), the T/C (dose: 6.25 mg/kg/injection, schedule: Q01DX009 (ip), vehicle: saline with Tween-80) was 100 % of control and the T/C (dose: 25.0 mg/kg/injection, schedule: Q01DX009 (ip), vehicle: saline with Tween-80) was 88 % of control.

In the case of C/C=C1\CN2CCC34c5ccc(OC)cc5N(C)C3C2CC1C4C(=O)OC (stereo not drawn), the T/C (dose: 17.25 mg/kg/injection, schedule: Q01DX005 (ip), vehicle: acid diluted with saline) was 96 % of control and the T/C (dose: 34.5 mg/kg/injection, schedule: Q01DX005 (ip), vehicle: acid diluted with saline) was 94 % of control.

CCCCC(C(=O)OCC)/C(C)=N\NC(N)=S (stereo not drawn) was tested, and the T/C [1] was 100 % of control, the T/C [2] was 99 % of control and the T/C [3] was 98 % of control.

With CC(CCC(=O)O)(c1ccc(OC(=O)Nc2ccc(Br)cc2)cc1)c1ccc(OC(=O)Nc2ccc(Br)cc2)cc1 the T/C [13] was 102 % of control, the T/C [14] was 97 % of control and the T/C [15] was 100 % of control.

With Nc1ccc(S(=O)(=O)c2ccc(Nc3ccnc4cc(Cl)ccc34)cc2)cc1 the T/C [4] was 100 % of control, the T/C [5] was 92 % of control and the T/C [6] was 90 % of control.

COC(=O)c1c(-c2ccc(OC)c(OC)c2)c(C=O)n(C)c1C was tested, and the T/C (dose: 100.0 mg/kg/injection, schedule: Q04DX002 (ip), vehicle: saline with Tween-80) was 99 % of control, the T/C (dose: 200.0 mg/kg/injection, schedule: Q04DX002 (ip), vehicle: saline with Tween-80) was 91 % of control and the T/C (dose: 400.0 mg/kg/injection, schedule: Q04DX002 (ip), vehicle: saline with Tween-80) was 90 % of control.

With CCOC(=O)/C(C)=C1\N=C(c2ccccc2)OC(=NC2CCCCC2)N1C1CCCCC1 the T/C [13] was 96 % of control, the T/C [14] was 91 % of control and the T/C [15] was 94 % of control.

CSc1ccnc2ccccc12 was tested, and the T/C [10] was 103 % of control, the T/C [11] was 118 % of control and the T/C [12] was 114 % of control.

For O=C(Nc1ccc(F)cc1)ON=C1CCCCC1, the T/C [7] was 92 % of control, the T/C [8] was 97 % of control and the T/C [9] was 90 % of control.

CN(c1ccccc1)c1c(Cl)c(=O)oc2c1ccc1occc12 was tested, and the T/C (dose: 30.0 mg/kg/injection, schedule: Q01DX005 (ip), vehicle: saline with Tween-80) was 103 % of control, the T/C [7] was 106 % of control and the T/C (dose: 120.0 mg/kg/injection, schedule: Q01DX005 (ip), vehicle: saline) was 96 % of control. The T/C [9] was 105 % of control and the T/C (dose: 240.0 mg/kg/injection, schedule: Q01DX005 (ip), vehicle: saline) was 103 % of control.

With C/C=C/C[P+](CC)(c1ccccc1)c1ccccc1 the T/C (dose: 0.78 mg/kg/injection, schedule: Q01DX009 (ip), vehicle: saline) was 103 % of control, the T/C (dose: 1.56 mg/kg/injection, schedule: Q01DX009 (ip), vehicle: saline) was 97 % of control and the T/C (dose: 3.13 mg/kg/injection, schedule: Q01DX009 (ip), vehicle: saline) was 112 % of control.

In the case of COC(=O)C1C(=O)CC2N(C)C1C(C)(C)C2(C)C (stereo not drawn), the T/C [8] was 150 % of control.

In the case of O=C(O)Cc1c[nH]c2cc(Cl)ccc12, the T/C [16] was 100 % of control, the T/C [17] was 102 % of control and the T/C [18] was 105 % of control.

For C=CCC12CC(COc3ccccc3C(N)=O)OC1=Nc1ccccc1NC2=O (stereo not drawn), the T/C [13] was 113 % of control, the T/C [14] was 100 % of control and the T/C [15] was 99 % of control.

In the case of CC(=O)Nc1c(O)c2ccccc2c2ccccc12, the T/C [4] was 87 % of control, the T/C [5] was 92 % of control and the T/C [6] was 86 % of control.

In the case of Nc1nc(=O)n(C2CCCCO2)cc1I (stereo not drawn), the T/C [4] was 105 % of control, the T/C [5] was 102 % of control and the T/C [6] was 111 % of control.

With COC(=O)C(CSC(c1ccccc1)(c1ccccc1)c1ccccc1)NC(=O)CC(NC(=O)OCc1ccccc1)C(N)=O (stereo not drawn) the T/C (dose: 12.5 mg/kg/injection, schedule: Q01DX009 (ip), vehicle: distilled water + Tween-80) was 106 % of control, the T/C (dose: 25.0 mg/kg/injection, schedule: Q01DX009 (ip), vehicle: distilled water + Tween-80) was 93 % of control and the T/C (dose: 50.0 mg/kg/injection, schedule: Q01DX009 (ip), vehicle: distilled water + Tween-80) was 103 % of control. The T/C (dose: 100.0 mg/kg/injection, schedule: Q01DX009 (ip), vehicle: distilled water + Tween-80) was 94 % of control and the T/C (dose: 200.0 mg/kg/injection, schedule: Q01DX009 (ip), vehicle: distilled water + Tween-80) was 102 % of control.

In the case of Oc1ccccc1/C=N/NC(=S)NC1CC2C=CC1C2 (stereo not drawn), the T/C (dose: 12.5 mg/kg/injection, schedule: Q01DX009 (ip), vehicle: olive oil, sesame oil, peanut oil) was 100 % of control, the T/C (dose: 25.0 mg/kg/injection, schedule: Q01DX009 (ip), vehicle: olive oil, sesame oil, peanut oil) was 102 % of control and the T/C (dose: 50.0 mg/kg/injection, schedule: Q01DX009 (ip), vehicle: olive oil, sesame oil, peanut oil) was 97 % of control. The T/C (dose: 100.0 mg/kg/injection, schedule: Q01DX009 (ip), vehicle: olive oil, sesame oil, peanut oil) was 97 % of control, the T/C (dose: 200.0 mg/kg/injection, schedule: Q01DX009 (ip), vehicle: olive oil, sesame oil, peanut oil) was 102 % of control and the T/C (dose: 400.0 mg/kg/injection, schedule: Q01DX009 (ip), vehicle: olive oil, sesame oil, peanut oil) was 97 % of control.

CC(=O)OC1C2CC(Cl)C1C2 (stereo not drawn) was tested, and the T/C [16] was 100 % of control, the T/C [17] was 109 % of control and the T/C [18] was 105 % of control.

With CC1(C)CC(=O)C(C)(CCC#N)C(=O)C1 the T/C (dose: 100.0 mg/kg/injection, schedule: Q04DX003 (ip), vehicle: saline) was 102 % of control, the T/C (dose: 200.0 mg/kg/injection, schedule: Q04DX003 (ip), vehicle: saline) was 99 % of control and the T/C (dose: 400.0 mg/kg/injection, schedule: Q04DX003 (ip), vehicle: saline) was 99 % of control.

In the case of Nc1cccc(NCc2ccccn2)n1, the T/C [4] was 101 % of control and the T/C [5] was 104 % of control.

With COc1ccc(Cl)c2c(=O)c3ccc4c(c3[nH]c12)C(=O)c1ccccc1C4=O the T/C [1] was 96 % of control, the T/C [2] was 91 % of control and the T/C [3] was 86 % of control.

With CC(NC(=O)C(CO)NC(=O)OCc1ccccc1)C(=O)O (stereo not drawn) the T/C [4] was 118 % of control, the T/C [5] was 97 % of control and the T/C [6] was 108 % of control.
